Data from PMC3005895 (Journal of Nucleic Acids, 2010).

Key:
[1] = target: T1, full-length heterotrimeric RPA (Homo sapiens, UniProt P27694); parameters: method as in earlier work; conditions: prior observation; cited from earlier work
T1 construct: Human full-length, untagged heterotrimeric RPA (RPA) was purified as previously described; made in house

[2] = tested on: T2, E. coli SSB; test: E. coli SSB binding assay (EMSA); conditions: for effect on EcSSB binding to ssDNA (result in words): EMSA, preincubation with SMI
T2 construct: purchased Enzymatics, Beverly, MA
Procedure: E. coli SSB Binding Assay These EMSAs were performed similarly to those for the RPA constructs, with the following exceptions. Reactions contained 25 nM of 5′-[^32P]-labeled 3Pc3 ssDNA and 3.3 nM (assuming homotetramer formation) SSB protein (Enzymatics, Beverly, MA). Reactions (20 μL) were carried out in 20 mM HEPES, pH 7.5, 1 mM DTT, 0.01% NP-40, 100 mM NaCl and resolved by 6% native polyacrylamide gel electrophoresis at 25 mA for 2 hours. Gels were dried and quantified via phosphorimager analysis as described above.

[3] = Cellular activity (data not shown); format: cell-based
[4] = target: T3, RPA DBD-A/B (Homo sapiens, UniProt P27694); test: Reversibility of inhibition: dialysis, then fluorescence polarization of DBD-A/B binding to F-dT12; conditions: preincubation 30 minutes, dialysis overnight, FP with F-dT12
T3 construct: we subcloned amino acids 181–432 of human RPA p70; inferred from pET15b vector and nickel-NTA purification) (N); made in house; host or cells: E. coli BL21(DE3)
Procedure: Fluorescence polarization experiments were preformed as previously described in [23]. SMIs were diluted in H1 buffer (10 mM HEPES, pH 7.2, 1 mM DTT, 0.01% NP-40, and 100 mM NaCl), and the final DMSO concentration was kept below 1%.
(§1) To assess the reversibility of select SMIs, the indicated SMI was preincubated with RPA or the DBD-A/B construct for 30 minutes at room temperature. The resulting solution was dialyzed versus 500 mL H1 buffer at 4°C using 0.5 ml, 12,000 molecular weight cut-off dialysis cassettes (Pierce). The resulting protein was recovered and concentration determined by Bradford analysis. Analysis of DNA binding activity was performed either by EMSA or FP. In each series of experiments, there was no loss of DNA binding activity in vehicle control-treated protein.
Figure 3 Irreversible inhibition of RPA DBD-A/B-DNA-binding activity by CheSS19. (a) EMSA analysis of CheSS19 inhibition of RPA DBD-A/B. Assays were performed as described in the legend to Figure 2. […] (c) Quantification of the binding data presented in panels (a) and (b). (d) Fluorescence polarization analysis of CheSS19 inactivated RPA DBD-A/B. RPA DBD-A/B was preincubated with vehicle (1% DMSO) or CheSS19 (1 pmol in 1% DMSO) for 30 minutes at 37°C. […] The protein was recovered, and DNA-binding activity measured by FP analysis of binding to an F-dT12 substrate was performed as described in “Section 2”. […]

[5] = target: T1, full-length heterotrimeric RPA; test: EMSA of full-length heterotrimeric RPA binding to ssDNA; conditions: 3Pc3 ssDNA, three independent experiments, read-out: IC50 for inhibition of full-length heterotrimeric RPA
Procedure: RPA Human full-length, untagged heterotrimeric RPA (RPA) was purified as previously described in [17].
(§2) RPA and DBD-A/B Binding EMSAs were performed as previously described in [16] using a purine rich ssDNA substrate (3Pc3). Briefly, reactions contained 12.5 nM 5′-[^32P]-labeled 3Pc3 ssDNA and the indicated concentrations of RPA or DBD-A/B. Protein was preincubated with the indicated concentration of SMI for 30 minutes at 37°C. DNA was then added and reactions incubated for additional 5 minutes at room temperature in a final reaction volume of 40 μL. Reactions were then resolved on a 6% native polyacrylamide gel and electrophoresed at 170 volts for 1 hour. Gels were dried and quantified via phosphorimager analysis and ImageQuant software (Molecular Dynamics).

[6] = target: T1, full-length heterotrimeric RPA; test: Reversibility of inhibition: dialysis, then EMSA of full-length RPA; format: binding; conditions: dialysis overnight, EMSA with 34-base DNA
Procedure: as §2
as §1, with “In each series of experiments, there was no loss of DNA binding activity in vehicle control-treated protein.” left out
Figure 5 Irreversible inactivation of full-length heterotrimeric RPA by MCI13E. […] DNA binding activity of the resulting protein was assessed by EMSA using a 5′-[^32P]-ss 34-base DNA as described in “Section 2.” Lanes 1–4 predialysis, lanes 5 and 6 postdialysis.

[7] = target: T3, RPA DBD-A/B; test: EMSA of RPA DBD-A/B binding to ssDNA; conditions: for inhibition of DBD-A/B DNA binding (result in words): 25–200 μM inhibitor
Procedure: DBD-A/B The sequence encoding the RPA p70 DNA-binding domains A and B was subcloned from the hrRPA plasmid (provided by Dr. Marc Wold, University of Iowa) into the pET15b (Novagen) vector, and the protein was expressed in BL21(DE3) cells (Stratagene) as previously described in [9]. Briefly, cells were grown to an OD600 of 0.8, induced with 0.5 mM isopropyl-1-thio-β-D-galactopyranoside (IPTG) at 37°C for 2-3 hours. Small-scale DBD-A/B preparations were obtained from 1 L cultures, and, following induction, cells were harvested by centrifugation at 700 × g for 30 minutes at 4°C. The pellets were suspended in Buffer A (20 mM Tris, pH 7.5, 10% glycerol, 500 mM NaCl, 10 mM β-mercaptoethanol (BME), and 1 μg/mL phenylmethanesulfonyl fluoride (PMSF), leupeptin, and pepstatin) at 1 mL/gram of cells. The cells were lysed by sonication and insoluble material sedimented at 15,000 × g for 30 minutes at 4°C. The supernatant was then loaded onto a 10 mL phosphocellulose column, equilibrated with Buffer A, and the flow-through material collected. Imidazole was added to the flow-through to a final concentration of 5 mM, which was then loaded onto a 2 mL nickel-NTA-agarose column. The column was then washed with Buffer A containing 50 mM imidazole after which protein was eluted from the column using a gradient from 50–500 mM imidazole. Fractions were analyzed for protein content using Bradford and SDS-PAGE analysis in addition to assessment of DNA binding activity as determined by anisotropy. Fractions containing the DBD-A/B protein were pooled and dialyzed overnight in Buffer B (1 mM HEPES, pH 7.2, 10 mM dithiothreitol (DTT), 50 mM NaCl, and 1 μg/mL PMSF, pepstatin, and leupeptin) and aliquots stored at −80°C.
as §2

[8] = target: T4, Schizosaccharomyces pombe Pot1(DBD) (Schizosaccharomyces pombe, UniProt O13988); test: Schizosaccharomyces pombe Pot1(DBD) binding assay (EMSA); conditions: 15-mer ssDNA, three independent experiments, read-out: IC50 for inhibition of SpPot1(DBD) ssDNA binding
T4 construct: gift of Dr. Deborah Wuttke, University of Colorado, Boulder
T4 sequence (O13988 1-389): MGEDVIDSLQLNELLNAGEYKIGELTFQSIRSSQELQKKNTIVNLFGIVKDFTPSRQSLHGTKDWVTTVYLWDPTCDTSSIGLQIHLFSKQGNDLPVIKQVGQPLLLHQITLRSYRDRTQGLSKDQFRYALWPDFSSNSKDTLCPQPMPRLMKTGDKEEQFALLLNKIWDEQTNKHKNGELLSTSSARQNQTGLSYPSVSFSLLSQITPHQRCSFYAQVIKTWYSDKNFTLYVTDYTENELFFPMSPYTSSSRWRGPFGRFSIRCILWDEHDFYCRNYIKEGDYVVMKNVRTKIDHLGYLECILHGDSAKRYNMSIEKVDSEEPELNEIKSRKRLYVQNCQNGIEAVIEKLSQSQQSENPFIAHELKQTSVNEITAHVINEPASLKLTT
Procedure: Schizosaccharomyces pombe Pot1(DBD) Binding Assay EMSAs were performed as described above for EcSSB. Reactions contained 25 nM of 5′-[^32P]-labeled 15-mer ssDNA and 20 nM Pot1(DBD) protein (generously provided by Dr. Deborah Wuttke, University of Colorado, Boulder). Reactions (20 μL) were carried out in 20 mM HEPES, pH 7.5, 1 mM DTT, 0.01% NP-40, 100 mM NaCl, at room temperature, and resolved by 6% native polyacrylamide gel electrophoresis at 25 mA for 2 hours. Gels were dried and quantified via phosphorimager analysis as described above.

[9] = tested on: human lung cancer cell model; conditions: cited from earlier work
[10] = target: T1, full-length heterotrimeric RPA; conditions: highest concentration tested (100 μM); cited from earlier work
[11] = target: RPA DBD-A/B (human, UniProt P27694 181-432); test: EMSA; ~50% of DNA bound at 125 nM protein; data not shown; DNA 12.5 nM; RPA/DBD-A/B EMSA: 12.5 nM DNA, protein preincubated with inhibitor 30 min at 37 C, then DNA 5 min at room temp; FP: 20 nM DNA, inhibitor diluted in H1 buffer (1)
RPA DBD-A/B (human, UniProt P27694 181-432), sequence (P27694 181-432): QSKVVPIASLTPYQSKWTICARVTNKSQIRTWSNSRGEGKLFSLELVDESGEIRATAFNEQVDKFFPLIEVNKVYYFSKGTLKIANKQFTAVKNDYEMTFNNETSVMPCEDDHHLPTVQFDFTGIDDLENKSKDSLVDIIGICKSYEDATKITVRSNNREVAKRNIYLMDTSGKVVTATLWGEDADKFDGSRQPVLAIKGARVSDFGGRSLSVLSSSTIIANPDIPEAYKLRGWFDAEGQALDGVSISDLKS

T1 sequence (P27694 whole entry): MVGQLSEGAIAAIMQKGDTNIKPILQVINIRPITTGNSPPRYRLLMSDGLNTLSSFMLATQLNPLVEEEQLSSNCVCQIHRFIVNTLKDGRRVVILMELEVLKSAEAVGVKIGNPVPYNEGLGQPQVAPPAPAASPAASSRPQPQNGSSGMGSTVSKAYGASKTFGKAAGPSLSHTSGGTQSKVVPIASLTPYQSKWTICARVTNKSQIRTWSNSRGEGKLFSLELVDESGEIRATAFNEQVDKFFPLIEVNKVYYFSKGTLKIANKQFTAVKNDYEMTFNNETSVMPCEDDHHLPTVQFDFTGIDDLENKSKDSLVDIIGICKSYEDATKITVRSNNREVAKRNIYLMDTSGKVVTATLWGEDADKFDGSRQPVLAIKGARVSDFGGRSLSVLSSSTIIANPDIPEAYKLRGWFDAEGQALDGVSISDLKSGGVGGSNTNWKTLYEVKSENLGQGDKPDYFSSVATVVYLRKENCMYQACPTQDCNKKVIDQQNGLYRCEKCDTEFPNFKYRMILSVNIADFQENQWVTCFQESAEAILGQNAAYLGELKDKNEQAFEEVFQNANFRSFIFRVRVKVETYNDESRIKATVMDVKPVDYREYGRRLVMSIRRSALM
T1 sequence (P15927 whole entry partner): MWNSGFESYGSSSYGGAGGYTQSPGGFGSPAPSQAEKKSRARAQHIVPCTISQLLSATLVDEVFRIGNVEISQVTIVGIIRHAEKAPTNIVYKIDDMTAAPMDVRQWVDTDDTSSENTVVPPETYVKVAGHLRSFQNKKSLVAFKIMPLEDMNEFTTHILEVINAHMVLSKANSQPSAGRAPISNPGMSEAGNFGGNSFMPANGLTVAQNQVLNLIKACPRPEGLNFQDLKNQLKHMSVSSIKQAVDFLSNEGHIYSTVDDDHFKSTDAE
T1 sequence (P35244 whole entry partner): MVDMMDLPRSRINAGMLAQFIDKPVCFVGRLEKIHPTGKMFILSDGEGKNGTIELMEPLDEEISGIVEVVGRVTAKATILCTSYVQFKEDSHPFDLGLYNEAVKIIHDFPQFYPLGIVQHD
T3 sequence (P27694 181-432): as the sequence (P27694 181-432) above

## O=C1OC(=O)[C@H]2C3C=CC(CC3)[C@@H]12 [CheSS19]
[1]
  mode of inhibition of full-length RPA: irreversibly inhibited
[2]
  effect on EcSSB binding to ssDNA (result in words): unaffected
[3]
  cellular activity: does not display any cellular activity
[4]
  mode of inhibition of DBD-A/B after dialysis: irreversible

## CC1(C)C2CCC1(C)C(OC(=O)CBr)C2 (stereo not drawn) [MCI13E]
[2]
  effect on EcSSB binding to ssDNA (result in words): unaffected
[5]
  IC50: 16.1 µM
[6]
  mode of inhibition of full-length RPA after dialysis: inhibition was not reversed by dialysis
[7]; EMSA
  inhibition of DBD-A/B DNA binding (result in words): lack of inhibition

## CC1(C)C2CCC1(C)C(OC(=O)CI)C2 (stereo not drawn) [MCI13F]
[2]
  effect on EcSSB binding to ssDNA (result in words): unaffected
[5]
  IC50: 10.1 µM
[7]; EMSA
  inhibition of DBD-A/B DNA binding (result in words): lack of inhibition

## CCOc1ccc2cc(C3CC(c4ccc(Br)cc4)=NN3C(=O)CCC(=O)O)c(Cl)nc2c1 (stereo not drawn) [TDRL-505]
[8]
  IC50: 15.7 ± 1.6 µM
[2]; 100 μM, highest concentration tested
  decrease in EcSSB binding to ssDNA: ~ 20%
[2]
  effect on EcSSB binding to ssDNA (result in words): ineffective
[9]
  synergy with etoposide: synergize
[9]; human lung cancer cell model
  synergy with cisplatin: synergize
[10]
  inhibition of RPA DNA binding: ~90%
[7]; EMSA, 125 nM DBD-A/B, 12.5 nM DNA, TDRL-505 10–100 μM, read-out: half-maximal inhibition of DBD-A/B DNA binding activity
  IC50: ~40 µM
[7]; compared with heterotrimer value of ref 12
  half-maximal inhibition of DBD-A/B relative to intact heterotrimer: about twice
[7]; highest concentration tested (100 μM), read-out: inhibition of RPA DBD-A/B DNA binding
  inhibition at 100 µM: ~90%

B1: 34-mer (ssDNA)
DNA: CTAGAAAGGGGGAAGAAAGGGAAGAGGCCAGAGA
[11]
  apparent K (half saturation): ~125 nM
